Data reported in ChEMBL document CHEMBL1201862, “PubChem BioAssay data set” (2004).
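96-well plates; 48 h exposure; 5 concentrations. Endpoints by linear interpolation between flanking doses. Not reached: highest tested concentration assigned. Here, GI50 denotes the concentration required for 50% inhibition of growth.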 The source made the active and inactive calls. No stated cut-off is given here; in the data, active = GI50 up to about 1.1 µM and inactive = higher. Where a SMILES comes first, the peptide text is derived from it. The star is where a group is joined. Cbz = O=C(OCc1ccccc1)*; Boc = CC(C)(C)OC(=O)*; OSu = O=C1CCC(=O)N1O*; Bn = c1ccc(C*)cc1

Columns and labels:
Assay in all cases: growth of human tumour cells (NCI), 48 h
A549 = tested on: A549
UO-31 = tested on: UO-31
OVCAR-4 = tested on: OVCAR-4
EKVX = tested on: EKVX
HOP-92 = tested on: HOP-92
SNB-75 = tested on: SNB-75
HT-29 = tested on: HT-29
OVCAR-3 = tested on: OVCAR-3
NCI-H226 = tested on: NCI-H226
SK-OV-3 = tested on: SK-OV-3
UACC-257 = tested on: UACC-257
UACC-62 = tested on: UACC-62
M14 = tested on: M14
SK-MEL-28 = tested on: SK-MEL-28
NCI-H522 = tested on: NCI-H522
OVCAR-5 = tested on: OVCAR-5
SK-MEL-2 = tested on: SK-MEL-2
RXF 393 = tested on: RXF 393
SF-295 = tested on: SF-295

Measured: GI50

CCOC(=O)C(=O)Nc1nc2c(s1)C(=O)c1ccccc1C2=O
inactive: A549 17.8 µM | UO-31 14.8 µM | OVCAR-4 17.1 µM | EKVX 16.1 µM | HOP-92 12.2 µM | SNB-75 16.2 µM | HT-29 14.4 µM | OVCAR-3 5.62 µM | NCI-H226 18.2 µM | SK-OV-3 > 10 µM | UACC-257 16.1 µM | UACC-62 17.5 µM | M14 15.7 µM | SK-MEL-28 14.3 µM | NCI-H522 14.9 µM | OVCAR-5 27.7 µM | SK-MEL-2 17.2 µM

Cc1ccc(/N=C/c2ccc3c(c2)OCO3)cc1C
inactive: A549 > 100 µM | UO-31 > 100 µM | EKVX > 100 µM | HOP-92 > 100 µM | RXF 393 > 100 µM | SNB-75 > 100 µM | HT-29 > 100 µM | OVCAR-3 > 100 µM | NCI-H226 > 100 µM | SK-OV-3 > 100 µM | UACC-62 > 100 µM | M14 > 100 µM | SK-MEL-28 > 100 µM | NCI-H522 > 100 µM | OVCAR-5 > 100 µM | SK-MEL-2 > 100 µM | SF-295 > 100 µM

CCCCN/C(=N/C#N)NCc1ccccc1
inactive: A549 > 100 µM | UO-31 > 100 µM | OVCAR-4 > 100 µM | EKVX > 100 µM | HOP-92 > 100 µM | SNB-75 42.8 µM | HT-29 > 100 µM | OVCAR-3 > 100 µM | NCI-H226 > 100 µM | SK-OV-3 > 100 µM | UACC-62 > 100 µM | M14 > 100 µM | SK-MEL-28 > 100 µM | NCI-H522 > 100 µM | OVCAR-5 > 100 µM | SK-MEL-2 > 100 µM | SF-295 > 100 µM

O=C1[C@H]2ON(c3ccccc3)C(c3ccco3)[C@H]2C(=O)N1c1ccc(Cc2ccc(N3C(=O)[C@@H]4ON(c5ccccc5)C(c5ccco5)[C@@H]4C3=O)cc2)cc1 (stereo partly drawn)
inactive: A549 > 100 µM | UO-31 > 100 µM | OVCAR-4 > 100 µM | HOP-92 > 100 µM | RXF 393 > 100 µM | SNB-75 > 100 µM | HT-29 > 100 µM | OVCAR-3 > 100 µM | NCI-H226 > 100 µM | SK-OV-3 > 100 µM | UACC-257 47.5 µM | UACC-62 85.3 µM | M14 82.2 µM | SK-MEL-28 > 100 µM | OVCAR-5 > 100 µM | SK-MEL-2 > 100 µM | SF-295 > 100 µM

COC(=O)C1=C(C)C(=O)C2(CCCCCC2C(=O)OC)C1 (stereo not drawn)
inactive: A549 > 100 µM | UO-31 > 100 µM | OVCAR-4 > 100 µM | EKVX > 100 µM | HOP-92 > 100 µM | RXF 393 > 100 µM | SNB-75 > 100 µM | HT-29 > 100 µM | NCI-H226 > 100 µM | SK-OV-3 > 100 µM | UACC-257 > 100 µM | UACC-62 > 100 µM | M14 > 100 µM | SK-MEL-28 > 100 µM | NCI-H522 65.2 µM | OVCAR-5 > 100 µM | SK-MEL-2 > 100 µM | SF-295 > 100 µM

O=c1cc(-c2ccc(O)cc2)oc2cc(O)cc(O)c12 [APIGENIN]
inactive: A549 42.9 µM | UO-31 23.9 µM | OVCAR-4 32.2 µM | EKVX 33.5 µM | HOP-92 20.2 µM | SNB-75 21.6 µM | OVCAR-3 24.2 µM | NCI-H226 24.7 µM | SK-OV-3 34.9 µM | UACC-257 30.8 µM | UACC-62 24.8 µM | M14 44.4 µM | SK-MEL-28 20.3 µM | NCI-H522 15.8 µM | OVCAR-5 30.5 µM | SK-MEL-2 29.9 µM | SF-295 27.2 µM

O=C(O)CC1CC=C[C@H]2c3cc4c(cc3C(=O)NC12)OCO4 (stereo partly drawn)
inactive: A549 > 75 µM | UO-31 > 75 µM | EKVX > 75 µM | RXF 393 > 75 µM | SNB-75 > 75 µM | OVCAR-3 > 75 µM | NCI-H226 44.7 µM | SK-OV-3 > 75 µM | UACC-257 > 75 µM | UACC-62 > 75 µM | M14 > 75 µM | SK-MEL-28 > 75 µM | NCI-H522 > 75 µM | SF-295 > 75 µM

CC(C)(C)OC(=O)NC(Cc1ccc(OCc2ccccc2)cc1)C(=O)NC(CCCCNC(=O)OCc1ccccc1)C(=O)ON1C(=O)CCC1=O (stereo not drawn) (Boc-Tyr(Bn)-Lys(Cbz)-OSu; configuration not given here)
inactive: A549 34.1 µM | UO-31 21.6 µM | EKVX 42.6 µM | HOP-92 > 10 µM | RXF 393 16.9 µM | SNB-75 21.8 µM | HT-29 23.5 µM | NCI-H226 29.2 µM | UACC-257 34.3 µM | UACC-62 18.2 µM | M14 19.4 µM | SK-MEL-28 15.8 µM | OVCAR-5 31.3 µM | SK-MEL-2 17.4 µM

CCCN(CCC)C(=O)c1nc(N)nc(-c2ccc(OC)cc2)c1-c1ccc(OC)cc1
inactive: A549 > 100 µM | UO-31 > 100 µM | OVCAR-4 47.9 µM | EKVX > 100 µM | HOP-92 82.6 µM | SNB-75 37.5 µM | HT-29 > 100 µM | OVCAR-3 > 100 µM | NCI-H226 > 100 µM | SK-OV-3 > 100 µM | UACC-257 > 100 µM | UACC-62 > 100 µM | M14 > 100 µM | SK-MEL-28 > 100 µM | NCI-H522 98.9 µM | OVCAR-5 > 100 µM | SK-MEL-2 > 100 µM | SF-295 > 100 µM

CN(C)CC/C(=N\Nc1c(Cl)cccc1Cl)c1ccccc1
inactive: A549 29.3 µM | UO-31 7.08 µM | OVCAR-4 20.3 µM | EKVX 30.3 µM | RXF 393 11.8 µM | SNB-75 15.2 µM | HT-29 15.8 µM | OVCAR-3 22.8 µM | SK-OV-3 22.5 µM | UACC-257 17.7 µM | UACC-62 15.8 µM | M14 18.2 µM | SK-MEL-28 19.2 µM | NCI-H522 17.5 µM | OVCAR-5 19.2 µM | SK-MEL-2 18.2 µM | SF-295 16 µM

CCOc1ccc(/C=N\N2C(=O)c3ccccc3C2=O)cc1
inactive: A549 > 100 µM | UO-31 > 100 µM | OVCAR-4 > 100 µM | EKVX > 100 µM | HOP-92 > 100 µM | RXF 393 > 100 µM | SNB-75 > 100 µM | HT-29 > 100 µM | OVCAR-3 > 100 µM | NCI-H226 > 100 µM | UACC-257 > 100 µM | UACC-62 > 100 µM | M14 > 100 µM | SK-MEL-28 > 100 µM | OVCAR-5 > 100 µM | SK-MEL-2 > 100 µM | SF-295 > 100 µM

CC(NC(=O)OC(C)(C)C)C(=O)NC(Cc1ccccc1)C(=O)NCC(=O)Oc1c(Cl)c(Cl)c(Cl)c(Cl)c1Cl (stereo not drawn)
inactive: A549 19.5 µM | UO-31 14.2 µM | EKVX 17.8 µM | HOP-92 12.5 µM | RXF 393 17.2 µM | SNB-75 34.6 µM | HT-29 23.7 µM | NCI-H226 17.7 µM | UACC-257 20 µM | UACC-62 22.3 µM | M14 26.2 µM | SK-MEL-28 20.7 µM | OVCAR-5 19 µM | SK-MEL-2 20.7 µM

CC12CC(=O)OC(Cc3ccccc31)O2 (stereo not drawn)
inactive: A549 > 100 µM | UO-31 > 100 µM | EKVX > 100 µM | HOP-92 > 100 µM | RXF 393 > 100 µM | SNB-75 > 100 µM | HT-29 > 100 µM | OVCAR-3 > 100 µM | NCI-H226 > 100 µM | SK-OV-3 > 100 µM | UACC-257 > 100 µM | UACC-62 > 100 µM | M14 > 100 µM | SK-MEL-28 > 100 µM | NCI-H522 > 100 µM | SK-MEL-2 > 100 µM | SF-295 > 100 µM

O=C(/C=C/c1ccccc1)CSc1nc[nH]n1
inactive: A549 > 100 µM | UO-31 > 100 µM | OVCAR-4 > 100 µM | EKVX > 100 µM | RXF 393 > 100 µM | SNB-75 14.3 µM | HT-29 44.4 µM | OVCAR-3 > 100 µM | NCI-H226 > 100 µM | SK-OV-3 > 100 µM | UACC-257 > 100 µM | UACC-62 > 100 µM | M14 > 100 µM | SK-MEL-28 56.9 µM | NCI-H522 30.5 µM | OVCAR-5 > 100 µM | SK-MEL-2 > 100 µM | SF-295 81.1 µM

O=C1NN=CN2C(=O)CCC12 (stereo not drawn)
inactive: A549 > 100 µM | UO-31 > 100 µM | OVCAR-4 > 100 µM | EKVX > 100 µM | HOP-92 > 100 µM | RXF 393 > 100 µM | SNB-75 > 100 µM | OVCAR-3 > 100 µM | SK-OV-3 > 100 µM | UACC-257 > 100 µM | UACC-62 > 100 µM | M14 > 100 µM | SK-MEL-28 > 100 µM | SK-MEL-2 > 100 µM | SF-295 > 100 µM

CNC(=O)NS(=O)(=O)c1ccc(C)cc1.NS(=O)O
inactive: A549 > 100 µM | UO-31 > 100 µM | OVCAR-4 > 100 µM | HOP-92 > 100 µM | RXF 393 > 100 µM | SNB-75 > 100 µM | HT-29 > 100 µM | SK-OV-3 > 100 µM | UACC-257 > 100 µM | UACC-62 > 100 µM | M14 > 100 µM | SK-MEL-28 > 100 µM | NCI-H522 > 100 µM | OVCAR-5 > 100 µM | SK-MEL-2 > 100 µM | SF-295 > 100 µM
